{"source": "paper PMC11599936", "about": "“New-to-nature CO2-dependent acetyl-CoA assimilation enabled by an engineered B12-dependent acyl-CoA mutase” (Nature Communications, 2024)", "format_in_all_cases": "biochemical", "key": {"[1]": {"molecular_target": "T1, 2-hydroxyisobutyryl-CoA mutase from Aquincola tertiaricarbonis (Aquincola tertiaricarbonis, UniProt I3VE74+I3VE77)", "T1 construct": "gene hcmA", "T1 sequence (I3VE77 1-562)": "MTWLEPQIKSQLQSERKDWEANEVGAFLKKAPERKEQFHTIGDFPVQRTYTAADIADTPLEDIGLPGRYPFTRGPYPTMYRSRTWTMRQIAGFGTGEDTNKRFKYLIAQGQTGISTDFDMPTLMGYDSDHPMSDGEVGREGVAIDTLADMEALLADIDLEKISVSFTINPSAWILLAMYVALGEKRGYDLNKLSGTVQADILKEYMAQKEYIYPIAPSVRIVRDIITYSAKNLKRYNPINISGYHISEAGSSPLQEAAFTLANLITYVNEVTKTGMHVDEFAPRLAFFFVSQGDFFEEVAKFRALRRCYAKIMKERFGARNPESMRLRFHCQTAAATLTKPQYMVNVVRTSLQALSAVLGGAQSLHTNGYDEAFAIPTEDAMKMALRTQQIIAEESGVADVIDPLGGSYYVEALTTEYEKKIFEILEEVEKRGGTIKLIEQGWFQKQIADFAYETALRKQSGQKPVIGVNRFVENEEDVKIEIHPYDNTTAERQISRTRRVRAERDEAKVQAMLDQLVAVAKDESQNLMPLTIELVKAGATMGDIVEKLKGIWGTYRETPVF", "T1 sequence (I3VE74 1-136)": "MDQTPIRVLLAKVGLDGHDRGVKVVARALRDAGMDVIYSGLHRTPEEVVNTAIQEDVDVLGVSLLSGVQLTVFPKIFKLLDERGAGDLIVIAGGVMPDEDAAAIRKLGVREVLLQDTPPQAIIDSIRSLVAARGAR", "assay": "coupled PhaJ/Etr1p assay, NADPH at […] nm", "details": "12.5 µM coenzyme B12, 50 mM NaPO4 pH 7, 30 °C"}, "Pct": {"molecular_target": "T2, Pct (Cupriavidus necator, UniProt Q0K874)", "T2 construct": "recombinant from E. coli BL21 (DE3), Ni-NTA purified", "T2 sequence (Q0K874 1-542)": "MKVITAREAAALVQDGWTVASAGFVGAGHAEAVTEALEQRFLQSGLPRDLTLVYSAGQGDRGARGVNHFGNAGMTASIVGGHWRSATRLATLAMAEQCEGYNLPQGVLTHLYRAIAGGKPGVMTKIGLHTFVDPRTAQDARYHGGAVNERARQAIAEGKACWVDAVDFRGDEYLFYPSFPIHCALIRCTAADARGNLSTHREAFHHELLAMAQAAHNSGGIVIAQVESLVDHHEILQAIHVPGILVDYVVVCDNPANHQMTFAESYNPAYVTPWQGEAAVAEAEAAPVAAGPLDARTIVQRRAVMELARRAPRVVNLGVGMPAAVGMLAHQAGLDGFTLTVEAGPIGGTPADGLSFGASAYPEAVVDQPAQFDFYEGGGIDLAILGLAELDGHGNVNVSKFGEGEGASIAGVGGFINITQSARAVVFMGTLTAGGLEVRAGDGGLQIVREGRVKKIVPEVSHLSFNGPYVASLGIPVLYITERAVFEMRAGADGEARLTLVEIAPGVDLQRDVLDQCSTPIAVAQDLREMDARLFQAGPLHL", "assay": "LC-MS CoA-transfer assay", "details": "100 mM HEPES pH 7.5, 10 mM MgCl2, 30 °C"}, "AbfT": {"molecular_target": "T3, AbfT (Clostridium aminobutyricum, UniProt Q9RM86)", "T3 construct": "recombinant from E. coli BL21 (DE3), Ni-NTA purified", "T3 sequence (Q9RM86 1-438)": "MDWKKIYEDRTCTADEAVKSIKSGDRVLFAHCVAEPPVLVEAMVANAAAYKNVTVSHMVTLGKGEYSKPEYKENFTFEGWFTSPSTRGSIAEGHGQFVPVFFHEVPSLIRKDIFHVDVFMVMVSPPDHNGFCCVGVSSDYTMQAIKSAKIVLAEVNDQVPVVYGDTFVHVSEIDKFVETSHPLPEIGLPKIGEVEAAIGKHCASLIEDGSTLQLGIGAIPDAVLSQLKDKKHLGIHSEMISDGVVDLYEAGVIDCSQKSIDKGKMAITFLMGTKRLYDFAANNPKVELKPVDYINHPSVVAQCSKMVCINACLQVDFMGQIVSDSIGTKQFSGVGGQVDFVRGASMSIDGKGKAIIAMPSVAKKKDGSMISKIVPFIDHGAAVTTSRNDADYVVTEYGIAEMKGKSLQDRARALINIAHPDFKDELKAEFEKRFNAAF", "assay": "LC-MS CoA-transfer assay", "details": "100 mM HEPES pH 7.5, 10 mM MgCl2, 30 °C"}, "[2]": {"details": "CoA donor acetyl-CoA 100 µM, 1 mM acid"}}, "data": [{"smiles": "CC(C)(O)C(=O)SCCNC(=O)CCNC(=O)[C@H](O)C(C)(C)COP(=O)(O)OP(=O)(O)OC[C@H]1O[C@@H](n2cnc3c(N)ncnc32)[C@H](O)[C@@H]1OP(=O)(O)O", "note": "[2-hydroxyisobutyryl-CoA]", "values": [{"measurement": "coupled PhaJ/Etr1p assay, NADPH at 340 nm", "setting": "[1]", "value": "we confirmed functionality of this purified enzyme with its native substrate 2-hydroxyisobutyryl-CoA"}]}, {"smiles": "O=C(O)CCO", "note": "[3-hydroxypropionate]", "values": [{"measurement": "LC-MS CoA-transfer assay", "setting": "Pct; [2]", "value": "performed best with 3-HP as CoA-acceptor and acetyl-CoA as CoA-donor"}, {"measurement": "LC-MS CoA-transfer assay", "setting": "AbfT; [2]", "value": "performed best with 3-HP as CoA-acceptor and acetyl-CoA as CoA-donor"}]}, {"smiles": "CC(=O)SCCNC(=O)CCNC(=O)[C@H](O)C(C)(C)COP(=O)(O)OP(=O)(O)OC[C@H]1O[C@@H](n2cnc3c(N)ncnc32)[C@H](O)[C@@H]1OP(=O)(O)O", "note": "[acetyl-CoA]", "values": [{"measurement": "LC-MS CoA-transfer assay", "setting": "Pct; CoA acceptor 3-HP 1 mM", "value": "performed best with 3-HP as CoA-acceptor and acetyl-CoA as CoA-donor"}, {"measurement": "LC-MS CoA-transfer assay", "setting": "AbfT; CoA acceptor 3-HP 1 mM", "value": "performed best with 3-HP as CoA-acceptor and acetyl-CoA as CoA-donor"}]}]}
